The text below walks through data of patent US7332495B2 (priority 2002, dated 2008).

One data set has as its system Kunming mice. Description: Mice writhing model (acetic acid). Format: in vivo. Summed up:
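Mixed-sex mice received test compound at 20 mg/Kg i.p.; controls received saline p.o. (20 ml/Kg). Thirty minutes later 0.7% acetic acid (10 mg/kg i.p.) was injected, and writhes were counted over 5 minutes. Inhibition ratio was calculated relative to control.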

Data set [1] deals with rats. The data set can be described thus: Defervescence in rats given Brewers' yeast. Type of data set: in vivo. The conditions noted are these: p.o., 60 mg/kg, Brewers' yeast s.c. 7%.
Data set [2] deals with rats. Description: Precipitated withdrawal test in rats. Format: in vivo. The conditions noted are these: for Abstinence syndrome (IV ± SD): 14 days, Narcan i.p. 4 mg/kg. As for the experimental part: 48 rats were divided into 4 groups (12 for each group, ? fifty-fifty). Morphines IV-12-1 (75 mg/Kg), IV-12-2 (100 mg/Kg) and saline, was administered respectively using progressive dose increase for 14 days and 3 times per day. On the 15th day, Narcan is injected (i.p. 4 mg/kg) to precipitate withdrawal. The withdrawal syndrome was observed and the rats wre weighed at 30, 60 and 120 minutes after the injection respectively.

Data set [3] relates to rats. Description: Conditional position preference in rats. From the text: A commercially available device for testing (Med Associates Inc.) was used. Measurements were automatically recorded by a computer.
The data are indicated by means of […], t-test was employed to compare the data in different groups. The rats were divided randomly into groups by weight, 12 for each group. They were positive control groups. […] The experiments were divided into stages of accommodation, training and test. Accommodation: Open the doors between black box and grey box and the door between white box and grey box. put the rats in from the grey box; let them run free in the training box for 15 minutes for 4 days. Training: The white box is with medicine while the black one is without it. The period training is 10 days, the first day with the medicine while the second day not; the third day with the medicine while the fourth day not, so on and so forth. When carrying out the training with medicine, 15 minutes after the rat is administrated (i.g.) with medicine, it is put into the white box for 30 minutes. When the training is without medicine, 15 minutes after the rat is administrated (i.g.) with saline, it is put into the black box for 30 minutes. Test: On the 11th day, the rat is put into the training box, with the door open. The time the rat stays in each box, and the number of time it enters during 15 minutes were determined, and the percentage of the time staying in the white box to the time together in white box and black box is calculated (Table 12).

Another data set in a line: Acute toxicity in mice. To be noted: mouse, in vivo, po, Bliss method.

`Nc1ccc(CN2CCN(CC(=O)c3ccccc3)CC2)cc1` [IV-12, N^1-(4-aminobenzyl)-N^4-phenacyl piperazine]: the “Writhing (K i)” value with Kunming mice (20 mg/kg, Table 5 summary) is 100. The inhibition in vivo at 20 mg/kg in the data set on Kunming mice (Mus musculus, ip, i.p. 20 mg/Kg, acetic acid 0.7% i.p. after 30 minutes, writhes in 5 minutes, read-out: Analgesia (inhibition ratio of writhing)) worked out at 100%. Also, the ED50 in the data set on Kunming mice (Mus musculus, po, Mice, Acetic acid Writhing, read-out: Analgesia ED50) stood at 13.2 mg/kg. Also, the Defervescence effect entry in the data set with rats [1] was “no defervescence effect”. Also, the “Percent of the lost weight (IV ± SD)” value in the data set on rats [2] (IV-12-1 (75 mg/Kg), 30 min after Narcan) is −1.8 ± 1.4; in the data set on rats [2] (IV-12-1 (75 mg/Kg), 60 min after Narcan) it was −2.6 ± 1.5; with rats [2] (IV-12-1 (75 mg/Kg), 120 min after Narcan) it was −3.1 ± 1.5; with rats [2] (IV-12-2 (100 mg/Kg), 30 min after Narcan), −3.1 ± 1.3; with rats [2] (IV-12-2 (100 mg/Kg), 60 min after Narcan) it was −3.9 ± 1.4; in the data set on rats [2] (IV-12-2 (100 mg/Kg), 120 min after Narcan) it was −4.2 ± 1.5. The figures for the “Abstinence syndrome (IV ± SD)” value in the data set on rats [2] (IV-12-1 (75 mg/Kg)) and in the data set with rats [2] (IV-12-2 (100 mg/Kg)) were 4.7 ± 3.9 and 5.3 ± 2.1, respectively. Also, the “Percent in the medicine box (%)” value was 46.1 ± 16.3% with rats [3] (10 mg/kg i.g.), 51.9 ± 9.8% with rats [3] (20 mg/kg i.g.) and 62.9 ± 5.4 % in the data set on rats [3] (50 mg/kg i.g.). This compound gave a 50% lethal dose (LD50) in “Acute toxicity in mice” of 309 mg/kg.
